# Reference: patent publication US4147787A, “4,5,6,7-Tetrahydro-thieno[2,3-c]-and [3,2-c]-pyridines, and therapeutic compositions containing the same” (Parcor, priority 1977, dated 1979)
# How the values were obtained:
# [1] = system: A.D.P. induced blood-platelet aggregation; assay: A.D.P. induced blood-platelet aggregation; type: in vivo, Wistar rats; conditions: Rattus norvegicus, po; 100 mg/kg orally, rats, 3 hours after treatment, 10 μM A.D.P. solution; read-out: Percent inhibition of blood-platelet aggregation, A.D.P.
# Protocol: (§1) A blood sample is taken from the jugular vein of Wistar rats. From this citrated blood and after centifugation, a plasma is reconstituted which contains 600,000 ± 20,000 blood-platelets per ml, which plasma is then used in all aggregation determinations.
# (§2) 0.4 ml plasma is placed in a siliconized tube provided with a magnet bar, also siliconized. The tube is introduced into an aggregometer connected to an apparatus which records optical density variations. When light transmission has attained a stable value, 0.5 ml of a solution containing 10 μM A.D.P. (adenosinediphosphate) is added to the tube.
# (§3) Blood-platelet aggregation induces an increase of light transmission, followed by a decrease subsequent to the deaggregation phase.
# (§4) Different groups of 20 rats each are used, each group being orally administered 100 mg/kg of a test derivative.
# [2] = system: Collagen-induced blood-platelet aggregation; assay: Collagen-induced blood-platelet aggregation; type: in vivo, Wistar rats; conditions: Rattus norvegicus, po; 100 mg/kg orally, rats, 3 hours after treatment; read-out: Percent inhibition of blood-platelet aggregation, Collagen
# Protocol: as §1, §2, §3
# The A.D.P. solution is substituted with a collagen (bovine tendon extract) solution.
# as §4
# [3] = system: rat globules (red corpuscles); assay: In vitro anti-sludge activity, curative procedure (protamine sulfate); type: cell-based; conditions: 25 μg
# Protocol: (§5) Said activity was investigated in vitro and in vivo in rats.
# (§6) Thrice washed rat globules are diluted to 1/250 in physiological saline. In each of 5 tubes are placed 0.6 ml of this suspension and 0.2 ml physiological saline. To each tube is then added 0-25-50-100 and 200 μg, respectively, of the test derivative contained in 0.2 ml solution. After incubation for one hour at 37° C., 0.2 ml of a solution containing 125 μg/ml protamine sulfate are added, after which the tube is then incubated again for 0.5 hour at 37° C. The globules of each tube are then examined with a Mallases cell, and the percent free globules and the percent aggregates formed by 2, 3, 4, 5 etc.. globules is then recorded.
# The experiment was repeated according to a "curvative" procedure; the red corpuscles were first contacted with protamine sulfate and, after incubation for 0.5 hour, 0.2 ml containing 25 μg of test derivative were added thereto, which operation is followed by another incubation for one hour at 37° C. The results obtained are reported in Table III, in which the percent agglomerates as a function of size is indicated.
# [4] = system: rat globules (red corpuscles); assay: In vitro anti-sludge activity, preventive treatment (protamine sulfate); type: cell-based
# Protocol: as §5, §6
compound,measurement,setting,value
"O=C(O)[C@@H]1NCc2sccc2[C@@H]1O (relative stereo) [Example 5, 5-Carboxy-4-hydroxy-4,5,6,7-tetrahydro-thieno[2,3-c]pyridine]",inhibition at 100 mg/kg,[1],62.3%
same,inhibition at 100 mg/kg,[2],90.5%
same,"percent agglomerates, size 2",[3],11%
same,"percent agglomerates, size 3",[3],3%
same,"percent agglomerates, size 4",[3],0%
same,"percent agglomerates, size 5",[3],0%
same,"percent agglomerates, size 6",[3],0%
same,"percent agglomerates, size 7",[3],0%
same,"percent agglomerates, size 8",[3],0%
same,"percent agglomerates, size 9",[3],0%
same,"percent agglomerates, size 10",[3],0%
same,percent free red corpuscles (size of agglomerates 1),[3],86%
"O=C(OCc1ccccc1)[C@H]1[C@@H](O)c2sccc2CN1Cc1ccccc1 (relative stereo) [Example 7, 5-Benzyl-6-benzyloxycarbonyl-7-hydroxy-4,5,6,7-tetrahydro-thieno[3,2-c]pyridine]","percent agglomerates, size 2",[3],12%
same,"percent agglomerates, size 3",[3],3%
same,"percent agglomerates, size 4",[3],1%
same,"percent agglomerates, size 5",[3],0%
same,"percent agglomerates, size 6",[3],0%
same,"percent agglomerates, size 7",[3],0%
same,"percent agglomerates, size 8",[3],0%
same,"percent agglomerates, size 9",[3],0%
same,"percent agglomerates, size 10",[3],0%
same,percent free red corpuscles (size of agglomerates 1),[3],84%
"O=C(OCc1ccccc1Cl)[C@H]1[C@@H](O)c2sccc2CN1Cc1ccccc1Cl (relative stereo) [Example 8, 5-o-Chlorobenzyl-6-o-chlorobenzyloxycarbonyl-7-hydroxy-4,5,6,7-tetrahydro-thieno[3,2-c]pyridine]",inhibition at 100 mg/kg,[1],61.8%
same,inhibition at 100 mg/kg,[2],90.4%
"O=C(OCc1ccccc1F)[C@H]1[C@@H](O)c2ccsc2CN1Cc1ccccc1F (relative stereo) [Example 10, 4-Hydroxy-5-o-fluorobenzyloxycarbonyl-6-o-fluorobenzyl-4,5,6,7-tetrahydro-thieno[2,3-c]pyridine]",inhibition at 100 mg/kg,[1],62.2%
same,inhibition at 100 mg/kg,[2],92.1%
"O=C(OCc1ccccc1)[C@H]1[C@@H](O)c2ccsc2CN1Cc1ccccc1 (relative stereo) [Example 11, 4-Hydroxy-5-benzyloxycarbonyl-6-benzyl-4,5,6,7-tetrahydro-thieno[2,3-c]pyridine]",inhibition at 100 mg/kg,[1],60.5%
same,inhibition at 100 mg/kg,[2],91.6%
"O=C(O)C1Cc2sc(Cl)cc2CN1 (centres unmarked) [Example 4, 6-Carboxy-2-chloro-4,5,6,7-tetrahydro-thieno[3,2-c]pyridine]",inhibition at 100 mg/kg,[1],63.1%
same,inhibition at 100 mg/kg,[2],91.3%
"O=C(OCc1ccccc1)C1Cc2sccc2CN1Cc1ccccc1 (centres unmarked) [Example 12, 5-Benzyl-6-benzyloxycarbonyl-4,5,6,7-tetrahydro-thieno[3,2-c]pyridine]",inhibition at 100 mg/kg,[1],61.6%
same,inhibition at 100 mg/kg,[2],90.8%
"O=C(OCc1ccc([N+](=O)[O-])cc1)C1Cc2sccc2CN1Cc1ccc([N+](=O)[O-])cc1 (centres unmarked) [Example 15, 5-p-Nitrobenzyl-6-p-nitrobenzyloxycarbonyl-4,5,6,7-tetrahydro-thieno[3,2-c]pyridine]","percent agglomerates, size 2",[3],11%
same,"percent agglomerates, size 3",[3],2%
same,"percent agglomerates, size 4",[3],0%
same,"percent agglomerates, size 5",[3],0%
same,"percent agglomerates, size 6",[3],0%
same,"percent agglomerates, size 7",[3],0%
same,"percent agglomerates, size 8",[3],0%
same,"percent agglomerates, size 9",[3],0%
same,"percent agglomerates, size 10",[3],0%
same,percent free red corpuscles (size of agglomerates 1),[3],87%
"COc1cc(COC(=O)C2Cc3sccc3CN2Cc2cc(OC)c(OC)c(OC)c2)cc(OC)c1OC (centres unmarked) [Example 17, 5-(3,4,5-Trimethoxy-benzyl)-6-(3,4,5-trimethoxy-benzyl-oxycarbonyl)-4,5,6,7-tetrahydro-thieno[3,2-c]pyridine]",inhibition at 100 mg/kg,[1],61.2%
same,inhibition at 100 mg/kg,[2],92%
"O=C(OCc1ccccc1)C1Cc2ccsc2CN1Cc1ccccc1 (centres unmarked) [Example 20, 5-Benzyloxycarbonyl-6-benzyl-4,5,6,7-tetrahydro-thieno[2,3-c]pyridine]",inhibition at 100 mg/kg,[1],60.4%
same,inhibition at 100 mg/kg,[2],91.5%
"O=C(O)C1Cc2sc(Cl)cc2CN1Cc1ccccc1 (centres unmarked) [Example 26, 5-Benzyl-6-carboxy-2-chloro-4,5,6,7-tetrahydro-thieno[3,2-c]pyridine]","percent agglomerates, size 2",[3],12%
same,"percent agglomerates, size 3",[3],2%
same,"percent agglomerates, size 4",[3],0%
same,"percent agglomerates, size 5",[3],0%
same,"percent agglomerates, size 6",[3],0%
same,"percent agglomerates, size 7",[3],0%
same,"percent agglomerates, size 8",[3],0%
same,"percent agglomerates, size 9",[3],0%
same,"percent agglomerates, size 10",[3],0%
same,percent free red corpuscles (size of agglomerates 1),[3],86%
"CCOC(=O)C1Cc2sc(Cl)cc2CN1Cc1ccccc1 (centres unmarked) [Example 27, 2-Chloro-5-benzyl-6-ethoxycarbonyl-4,5,6,7-tetrahydro-thieno[3,2-c]pyridine]","percent agglomerates, size 2",[4]; 25 μg,16%
same,"percent agglomerates, size 3",[4]; 25 μg,17%
same,"percent agglomerates, size 4",[4]; 25 μg,5%
same,"percent agglomerates, size 5",[4]; 25 μg,0%
same,"percent agglomerates, size 6",[4]; 25 μg,0%
same,"percent agglomerates, size 7",[4]; 25 μg,0%
same,"percent agglomerates, size 8",[4]; 25 μg,0%
same,"percent agglomerates, size 9",[4]; 25 μg,0%
same,"percent agglomerates, size 10",[4]; 25 μg,0%
same,"percent agglomerates, size 11",[4]; 25 μg,0%
same,"percent agglomerates, size 12",[4]; 25 μg,0%
same,"percent agglomerates, size 13",[4]; 25 μg,0%
same,percent free red corpuscles (size of agglomerates 1),[4]; 25 μg,62%
same,"percent agglomerates, size 2",[4]; 50 μg,20%
same,"percent agglomerates, size 3",[4]; 50 μg,10%
same,"percent agglomerates, size 4",[4]; 50 μg,4%
same,"percent agglomerates, size 5",[4]; 50 μg,0%
same,"percent agglomerates, size 6",[4]; 50 μg,0%
same,"percent agglomerates, size 7",[4]; 50 μg,0%
same,"percent agglomerates, size 8",[4]; 50 μg,0%
same,"percent agglomerates, size 9",[4]; 50 μg,0%
same,"percent agglomerates, size 10",[4]; 50 μg,0%
same,"percent agglomerates, size 11",[4]; 50 μg,0%
same,"percent agglomerates, size 12",[4]; 50 μg,0%
same,"percent agglomerates, size 13",[4]; 50 μg,0%
same,percent free red corpuscles (size of agglomerates 1),[4]; 50 μg,66%
same,"percent agglomerates, size 2",[4]; 100 μg,15%
same,"percent agglomerates, size 3",[4]; 100 μg,7%
same,"percent agglomerates, size 4",[4]; 100 μg,3%
same,"percent agglomerates, size 5",[4]; 100 μg,0%
same,"percent agglomerates, size 6",[4]; 100 μg,0%
same,"percent agglomerates, size 7",[4]; 100 μg,0%
same,"percent agglomerates, size 8",[4]; 100 μg,0%
same,"percent agglomerates, size 9",[4]; 100 μg,0%
same,"percent agglomerates, size 10",[4]; 100 μg,0%
same,"percent agglomerates, size 11",[4]; 100 μg,0%
same,"percent agglomerates, size 12",[4]; 100 μg,0%
same,"percent agglomerates, size 13",[4]; 100 μg,0%
same,percent free red corpuscles (size of agglomerates 1),[4]; 100 μg,75%
same,"percent agglomerates, size 2",[4]; 200 μg,9%
same,"percent agglomerates, size 3",[4]; 200 μg,5%
same,"percent agglomerates, size 4",[4]; 200 μg,2%
same,"percent agglomerates, size 5",[4]; 200 μg,0%
same,"percent agglomerates, size 6",[4]; 200 μg,0%
same,"percent agglomerates, size 7",[4]; 200 μg,0%
same,"percent agglomerates, size 8",[4]; 200 μg,0%
same,"percent agglomerates, size 9",[4]; 200 μg,0%
same,"percent agglomerates, size 10",[4]; 200 μg,0%
same,"percent agglomerates, size 11",[4]; 200 μg,0%
same,"percent agglomerates, size 12",[4]; 200 μg,0%
same,"percent agglomerates, size 13",[4]; 200 μg,0%
same,percent free red corpuscles (size of agglomerates 1),[4]; 200 μg,84%
same,"percent agglomerates, size 2",[3],10%
same,"percent agglomerates, size 3",[3],3%
same,"percent agglomerates, size 4",[3],0%
same,"percent agglomerates, size 5",[3],0%
same,"percent agglomerates, size 6",[3],0%
same,"percent agglomerates, size 7",[3],0%
same,"percent agglomerates, size 8",[3],0%
same,"percent agglomerates, size 9",[3],0%
same,"percent agglomerates, size 10",[3],0%
same,percent free red corpuscles (size of agglomerates 1),[3],87%
"CCOC(=O)C1Cc2sccc2CN1C (centres unmarked) [Example 28, 5-Methyl-6-ethoxycarbonyl-4,5,6,7-tetrahydro-thieno[3,2-c]pyridine]",inhibition at 100 mg/kg,[1],60.8%
same,inhibition at 100 mg/kg,[2],90.2%
COC(=O)C1Cc2sc(Cl)cc2CN1 (centres unmarked) [Example 29],inhibition at 100 mg/kg,[1],62.7%
same,inhibition at 100 mg/kg,[2],92.7%
same,"percent agglomerates, size 2",[3],9%
same,"percent agglomerates, size 3",[3],2%
same,"percent agglomerates, size 4",[3],1%
same,"percent agglomerates, size 5",[3],0%
same,"percent agglomerates, size 6",[3],0%
same,"percent agglomerates, size 7",[3],0%
same,"percent agglomerates, size 8",[3],0%
same,"percent agglomerates, size 9",[3],0%
same,"percent agglomerates, size 10",[3],0%
same,percent free red corpuscles (size of agglomerates 1),[3],87%
"COC(=O)C1Cc2sc(Cl)cc2CN1Cc1ccccc1Cl (centres unmarked) [Example 30, 2-Chloro-5-o.chlorobenzyl-6-methoxycarbonyl-4,5,6,7-tetrahydro-thieno[3,2-c]pyridine]",inhibition at 100 mg/kg,[1],62.4%
same,inhibition at 100 mg/kg,[2],93%
